One block for each molecule: values may come before it.
Experiments:
rat DNPH1 [1] = target: T1, rat DNPH1 (Rattus norvegicus, UniProt O35820); test: Isothermal titration calorimetry with rat DNPH1; conditions: for -T∆S / ∆G / ∆H / ∆S: ITC, T = 298 K, pH 6.0, rat DNPH1
T1 sequence (O35820 1-163): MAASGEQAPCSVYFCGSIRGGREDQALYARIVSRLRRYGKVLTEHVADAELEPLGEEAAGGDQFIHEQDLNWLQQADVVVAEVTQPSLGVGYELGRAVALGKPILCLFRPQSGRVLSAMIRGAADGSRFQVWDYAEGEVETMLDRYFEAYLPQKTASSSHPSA

human DNPH1 [2] = target: T2, human DNPH1 (Homo sapiens, UniProt O43598); test: Isothermal titration calorimetry with human DNPH1; conditions: for -T∆S / ∆G / ∆H / ∆S: ITC, T = 298 K, pH 6.0, human DNPH1
T2 sequence (O43598 1-174): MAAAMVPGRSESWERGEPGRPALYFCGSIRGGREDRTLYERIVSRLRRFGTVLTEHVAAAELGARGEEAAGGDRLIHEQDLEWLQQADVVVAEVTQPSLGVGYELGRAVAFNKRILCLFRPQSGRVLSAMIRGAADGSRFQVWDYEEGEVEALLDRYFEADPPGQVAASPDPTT

rat DNPH1 [3] = target: T1, rat DNPH1; test: Kinetic measurements: inhibition of rat DNPH1 activity (dGMP substrate, spectrophotometric)
human DNPH1 [4] = target: T2, human DNPH1; test: Kinetic measurements: inhibition of human DNPH1 activity (dGMP substrate, guanine by RR-HPLC)
rat DNPH1 [5] = target: T1, rat DNPH1; set-up: made in house; host or cells: E. coli Bli5; method as in PMID 20962348; conditions: cited from earlier work
human DNPH1 [6] = target: T2, human DNPH1; test: Kinetic parameters of human DNPH1 with 2'-deoxynucleoside 5'-monophosphates as substrates; format: biochemical; set-up: made in house; host or cells: E. coli Bli5; conditions: substrate of human DNPH1; for Km: double reciprocal plots, five concentrations

Compound: C/C(=C\CNc1ncnc2c1ncn2[C@@H]1O[C@H](COP(=O)(O)O)[C@@H](O)[C@H]1O)CO [Compound 2, trans-zeatin riboside 5’-monophosphate]
Ki (rat DNPH1 [3]): 15500 ± 1000 nM | decrease in activity compared to 1 (rat DNPH1 [3]; hydroxyl group on the C4 chain): up to 5 fold | Ki (human DNPH1 [4]): 8000 ± 1400 nM

Compound: C/C(=C/CNc1ncnc2c1ncn2[C@@H]1O[C@H](COP(=O)(O)O)[C@@H](O)[C@H]1O)CO [Compound 3, cis-zeatin riboside 5’-monophosphate]
Ki (rat DNPH1 [3]): 6100 ± 1200 nM | Ki (human DNPH1 [4]): 5600 ± 800 nM

Compound: O=P(O)(O)OC[C@H]1O[C@@H](n2cnc3c(NCc4ccco4)ncnc32)[C@H](O)[C@@H]1O [Compound 5, kinetin riboside 5’-monophosphate]
Kd (rat DNPH1 [1]): 800 ± 100 nM | -T∆S (rat DNPH1 [1]): 17.4 kcal/mol | ∆G (rat DNPH1 [1]): -8.3 kcal/mol | ∆H (rat DNPH1 [1]): -25.7 ± 0.1 kcal/mol | ∆S (rat DNPH1 [1]): -58.3 cal.K^1.mol^-1 | Kd (human DNPH1 [2]): 1400 ± 100 nM | -T∆S (human DNPH1 [2]): 12.6 kcal/mol | ∆G (human DNPH1 [2]): -7.5 kcal/mol | ∆H (human DNPH1 [2]): -20.1 ± 0.1 kcal/mol | ∆S (human DNPH1 [2]): -42.4 cal.K^-1.mol^-1 | Ki (rat DNPH1 [3]): 1800 ± 700 nM | Ki (human DNPH1 [4]): 2200 ± 200 nM

Compound: O=P(O)(O)OC[C@H]1O[C@@H](n2cnc3c(NCCc4ccccc4)ncnc32)[C@H](O)[C@@H]1O [Compound 12, N ^6-Phenylethyladenosine 5'-monophosphate]
Ki (rat DNPH1 [3]): 2900 ± 300 nM | Ki (human DNPH1 [4]): 7800 ± 1000 nM

Compound: Nc1nc2c(ncn2[C@@H]2O[C@H](COP(=O)(O)O)[C@@H](O)[C@H]2O)c(=O)[nH]1 [GMP]
free energy (rat DNPH1 [5]): -6.8 kcal/mol

Compound: Nc1ncnc2c1ncn2[C@H]1C[C@H](O)[C@@H](COP(=O)(O)O)O1 [dAMP]
kcat (human DNPH1 [6]): 2.5 ± 0.8 10^-3 s^-1 | Km (human DNPH1 [6]): 97 ± 14 µM

Compound: Nc1ccn([C@H]2C[C@H](O)[C@@H](COP(=O)(O)O)O2)c(=O)n1 [dCMP]
kcat (human DNPH1 [6]): 8.3 ± 0.4 10^-3 s^-1 | Km (human DNPH1 [6]): 2500 ± 207 µM

Compound: Nc1nc2c(ncn2[C@H]2C[C@H](O)[C@@H](COP(=O)(O)O)O2)c(=O)[nH]1 [dGMP, 2’-Deoxyguanosine 5’-monophosphate]
kcat (human DNPH1 [6]): 0.002 s⁻¹

Compound: O=c1[nH]cnc2c1ncn2[C@H]1C[C@H](O)[C@@H](COP(=O)(O)O)O1 [dIMP]
kcat (human DNPH1 [6]): 1.6 ± 0.1 10^-3 s^-1 | Km (human DNPH1 [6]): 104 ± 19 µM

Compound: Cc1cn([C@H]2C[C@H](O)[C@@H](COP(=O)(O)O)O2)c(=O)[nH]c1=O [dTMP]
kcat (human DNPH1 [6]): 25 ± 2 10^-3 s^-1 | Km (human DNPH1 [6]): 23000 ± 3050 µM

Compound: O=c1ccn([C@H]2C[C@H](O)[C@@H](COP(=O)(O)O)O2)c(=O)[nH]1 [dUMP]
kcat (human DNPH1 [6]): 200 ± 20 10^-3 s^-1 | Km (human DNPH1 [6]): 7800 ± 1760 µM

Other lines, results leading:

Kd (rat DNPH1 [1]): 2600 ± 100 nM | -T∆S (rat DNPH1 [1]): 8.3 kcal/mol | ∆G (rat DNPH1 [1]): -7.6 kcal/mol | ∆H (rat DNPH1 [1]): -15.9 ± 0.1 kcal/mol | ∆S (rat DNPH1 [1]): -27.9 cal.K^1.mol^-1 | Kd (human DNPH1 [2]): 2100 ± 200 nM | -T∆S (human DNPH1 [2]): 2.4 kcal/mol | ∆G (human DNPH1 [2]): -7.8 kcal/mol | ∆H (human DNPH1 [2]): -10.2 ± 0.1 kcal/mol | ∆S (human DNPH1 [2]): -8.2 cal.K^-1.mol^-1 | Ki (rat DNPH1 [3]): 3300 nM | Ki (human DNPH1 [4]): 2000 nM
Compound: CC(C)=CCNc1ncnc2c1ncn2[C@@H]1O[C@H](COP(=O)(O)O)[C@@H](O)[C@H]1O [Compound 1, N ^6-Isopentenyl adenosine 5’-monophosphate]

Ki (rat DNPH1 [3]): 7600 ± 1500 nM | Ki (human DNPH1 [4]): 3900 ± 1000 nM
Compound: CC(CO)CCNc1ncnc2c1ncn2[C@@H]1O[C@H](COP(=O)(O)O)[C@@H](O)[C@H]1O (stereo partly shown) [Compound 4, dihydrozeatin riboside 5’-monophosphate]

Kd (rat DNPH1 [1]): 600 ± 100 nM | -T∆S (rat DNPH1 [1]): 2.3 kcal/mol | ∆G (rat DNPH1 [1]): -8.5 kcal/mol | ∆H (rat DNPH1 [1]): -10.7 ± 0.1 kcal/mol | ∆S (rat DNPH1 [1]): -7.5 cal.K^1.mol^-1 | Kd (human DNPH1 [2]): 1400 ± 400 nM | -T∆S (human DNPH1 [2]): -1.8 kcal/mol | ∆G (human DNPH1 [2]): -8.0 kcal/mol | ∆H (human DNPH1 [2]): -6.1 ± 0.1 kcal/mol | ∆S (human DNPH1 [2]): 6.2 cal.K^-1.mol^-1 | Ki (rat DNPH1 [3]): 1200 ± 100 nM | Ki (human DNPH1 [4]): 2600 ± 300 nM
Compound: O=P(O)(O)OC[C@H]1O[C@@H](n2cnc3c(NC4CCCC4)ncnc32)[C@H](O)[C@@H]1O [Compound 7, N ^6-cyclopentyladenosine 5’-monophosphate]

Kd (rat DNPH1 [1]): 500 ± 100 nM | -T∆S (rat DNPH1 [1]): 11.2 kcal/mol | ∆G (rat DNPH1 [1]): -8.7 kcal/mol | ∆H (rat DNPH1 [1]): -19.9 ± 0.1 kcal/mol | ∆S (rat DNPH1 [1]): -37.6 cal.K^1.mol^-1 | Ki (rat DNPH1 [3]): 1200 ± 100 nM | Ki (human DNPH1 [4]): 1600 ± 300 nM
Compound: O=P(O)(O)OC[C@H]1O[C@@H](n2cnc3c(NC4CCCCC4)ncnc32)[C@H](O)[C@@H]1O [Compound 8, N ^6-Cyclohexyladenosine 5'-monophosphate]

Ki (rat DNPH1 [3]): 1300 ± 100 nM | Ki (human DNPH1 [4]): 1500 ± 100 nM
Compound: O=P(O)(O)OC[C@H]1O[C@@H](n2cnc3c(NC4CCC4)ncnc32)[C@H](O)[C@@H]1O [Compound 9, N ^6-Cyclobutyladenosine 5'-monophosphate]

Ki (rat DNPH1 [3]): 2000 ± 600 nM | Ki (human DNPH1 [4]): 2800 ± 600 nM
Compound: O=P(O)(O)OC[C@H]1O[C@@H](n2cnc3c(NC4CC4)ncnc32)[C@H](O)[C@@H]1O [Compound 10, N ^6-Cyclopropyladenosine 5'-monophosphate]

Ki (rat DNPH1 [3]): 6200 ± 700 nM | Ki (human DNPH1 [4]): 5600 ± 500 nM
Compound: O=C(O)CCNc1ncnc2c1ncn2[C@@H]1O[C@H](COP(=O)(O)O)[C@@H](O)[C@H]1O [Compound 13, N ^6-(2-carboxyethyl)adenosine 5'-monophosphate]

Kd (rat DNPH1 [1]): 9400 ± 100 nM | -T∆S (rat DNPH1 [1]): 5.5 kcal/mol | ∆G (rat DNPH1 [1]): -6.9 kcal/mol | ∆H (rat DNPH1 [1]): -12.4 ± 0.1 kcal/mol | ∆S (rat DNPH1 [1]): -18.5 cal.K^1.mol^-1 | Kd (human DNPH1 [2]): 5500 ± 100 nM | -T∆S (human DNPH1 [2]): 2.6 kcal/mol | ∆G (human DNPH1 [2]): -7.2 kcal/mol | ∆H (human DNPH1 [2]): -9.8 ± 0.1 kcal/mol | ∆S (human DNPH1 [2]): -8.8 cal.K^-1.mol^-1 | Ki (rat DNPH1 [3]): 11200 nM | Ki (human DNPH1 [4]): 2100 ± 200 nM
Compound: O=C(O)CCCNc1ncnc2c1ncn2[C@@H]1O[C@H](COP(=O)(O)O)[C@@H](O)[C@H]1O [Compound 14, N ^6-(3-carboxypropyl)adenosine 5'-monophosphate]

From PMC3834327, “N ^6-Substituted AMPs Inhibit Mammalian Deoxynucleotide N-Hydrolase DNPH1” (PLoS ONE, 2013)
